Holding throughout (type): cell-based
One assay relates to LNCaP cells. As to the kind of experiment: Caspase-9 colorimetric activity assay. The note with it: FIG. 4A. The protocol: (§1) LNCaP were obtained from American Type Culture Collection (Rockville, Md.) and LNCaP C4-2 cells were purchased from Urocor Inc., Oklahoma City, Okla. Cells were grown in RPMI 1640 medium supplemented with 10% (LNCaP) or 5% (LNCaP C4-2) fetal bovine serum (Hyclone, Logan, Utah) and grown in the presence of 5% CO2 at 37° C. Cells were treated with 10 μM Mifepristone (Sigma, St. Louis, Mo.) for three days or with increasing concentrations (from 200 ng/ml to 600 ng/ml) of TRAIL (Biomol Research Laboratories, Inc., Plymouth Meetings, Pa.) for varying time intervals 2, 4, 6, 8, 16, 20 and 24 hours (hr). Thus, for treatment with Mifepristone, cells were treated with Mifepristone for three days and then some cells treated (without washing) with TRAIL for indicated periods. Upon completion of the experiment, cells were harvested, and total proteins, cytosol or mitochondrial fractions were isolated as described below. At least three experiments were conducted with a minimum of four plates per treatment per experiment. As caspase-9 is a key protein in the formation of apoptosome, assays were performed to determine the activity of caspase-9. Caspase-9 activity was assayed using a colorimetric substrate, […] with a kit from Chemicon International, Inc. (Temecula, Calif.). Cleavage of the C-terminal peptide bond by the enzyme released p-nitroaniline, which was measured at 405 nm. Pure recombinant human caspase-9 was utilized as a positive control.

The test system of assay [1] is LNCaP C4-2 cells. As to the kind of experiment: Caspase-9 colorimetric activity assay. The note with it: FIG. 4B. The protocol: as §1
The subject of assay [2] is LNCaP C4-2 cells. As to the kind of experiment: Apoptosense assay (M30 ELISA, cleaved cytokeratin 18). The procedure: LNCaP were obtained from American Type Culture Collection (Rockville, Md.) and LNCaP C4-2 cells were purchased from Urocor Inc., Oklahoma City, Okla. Cells were grown in RPMI 1640 medium supplemented with 10% (LNCaP) or 5% (LNCaP C4-2) fetal bovine serum (Hyclone, Logan, Utah) and grown in the presence of 5% CO2 at 37° C. Cells were treated with 10 μM Mifepristone (Sigma, St. Louis, Mo.) for three days or with increasing concentrations (from 200 ng/ml to 600 ng/ml) of TRAIL (Biomol Research Laboratories, Inc., Plymouth Meetings, Pa.) for varying time intervals 2, 4, 6, 8, 16, 20 and 24 hours (hr). Thus, for treatment with Mifepristone, cells were treated with Mifepristone for three days and then some cells treated (without washing) with TRAIL for indicated periods. Upon completion of the experiment, cells were harvested, and total proteins, cytosol or mitochondrial fractions were isolated as described below. At least three experiments were conducted with a minimum of four plates per treatment per experiment. Two methods were used to measure induction of apoptosis by drug treatment: the MTT assay and the Apoptosense assay. The MTT assay measures mitochondrial enzyme activity and is indicative of the number of surviving cells. […] Cells were plated in petri dishes and after completion of the treatment, cells were harvested and total protein extracted as described below. […] Color was developed by adding tetramethylbenzidine solution and the optical density of the bound antibody was determined at 450 nm on a Spectra MAX 340 microplate reader (Molecular Devices, Menlo Park, Calif.). Standard solution supplied by the supplier was used for generating standard curves.
(In general: An ELISA detects its analyte on a solid surface through an enzyme-linked reagent.)

For the molecule `CC#C[C@]1(O)CC[C@H]2[C@@H]3CCC4=CC(=O)CCC4=C3[C@@H](c3ccc(N(C)C)cc3)C[C@@]21C` [Mifepristone], the caspase-9 activity entry in the assay with LNCaP cells and in the assay with LNCaP C4-2 cells [1] was “induced caspase-9 activity” throughout. The “M30 activity (in words)” value in the assay with LNCaP C4-2 cells [2] is recorded as “lower M30 activity”.

B1: Tumor necrosis factor α—Related Apoptosis Inducing Ligand (protein, UniProt P50591 1-281, looked up)
Tumor necrosis factor ligand …: MAMMEVQGGPSLGQTCVLIVIFTVLLQSLCVAVTYVYFTNELKQMQDKYSKSGIACFLKEDDSYWDPNDEESMNSPCWQVKWQLRQLVRKMILRTSEETISTVQEKQQNISPLVRERGPQRVAAHITGTRGRSNTLSSPNSKNEKALGRKINSWESSRSGHSFLSNLHLRNGELVIHEKGFYYIYSQTYFRFQEEIKENTKNDKQMVQYIYKYTSYPDPILLMKSARNSCWSKDAEYGLYSIYQGGIFELKENDRIFVSVTNEHLIDMDHEASFFGAFLVG
notes: 281 amino acid type II transmembrane protein of the tumor necrosis factor α family; purchased from Biomol
Turning to B1, the caspase-9 activity entry in the assay with LNCaP cells and with LNCaP C4-2 cells [1] was “induced caspase-9 activity” throughout. In the assay on LNCaP C4-2 cells [2] (between 8 hr to 20 hr treatment, FIG. 1D), the M30 activity is given as 1.4-2.0 U/ug.

The values above are taken from patent publication US20020115613A1, “Treatment of prostate cancer” (priority 2001, published 2002).
